# Test results as given in the NIST ThermoML archive (doi:10.1016/j.jct.2012.12.014).
# Numbers after ± are expanded uncertainties.
# Experiment: mn = molality of the nth substance listed, in mol/kg
# Details: 298.15 K, 101 kPa, Liquid, Vibrating tube method
structure (smiles),measurement,setting,value
Nc1cc[nH]c(=O)n1 [4-amino-2-hydroxypyrimidine] + O,mass density,m1 = 0.02193,997.872 ± 0.063 kg/m3
same,mass density,m1 = 0.02698,998.062 ± 0.063 kg/m3
same,mass density,m1 = 0.03192,998.246 ± 0.063 kg/m3
same,mass density,m1 = 0.03702,998.438 ± 0.063 kg/m3
same,mass density,m1 = 0.04187,998.618 ± 0.063 kg/m3
same,mass density,m1 = 0.04604,998.777 ± 0.063 kg/m3
same,mass density,m1 = 0.05099,998.96 ± 0.063 kg/m3
same,mass density,m1 = 0.05598,999.144 ± 0.063 kg/m3
same,mass density,m1 = 0.06284,999.402 ± 0.063 kg/m3
